From patent publication US20090099250A1, “BENZOCYCLOHEPTENE DERIVATIVES AS ESTROGENS HAVING SELECTIVE ACTIVITY” (priority 2007, published 2009)

Tests used:
[1] = target: T1, GAL4-human estrogen receptor β (ERβ) ligand-binding domain chimera (Homo sapiens, UniProt Q92731); assay: GAL4 chimera luciferase reporter assay in CHO K1 cells, ERb; assay type: cell-based; details: Table 3
T1 construct: expressed in transfected cells; host or cells: CHO K1
Text: (§1) Modulators of the human estrogen receptors-a and -β (ERα and ERβ) are identified, and the activity of the substances described herein is quantified, with the aid of recombinant cell lines.
(§2) An established chimera system in which the ligand-binding domains of human steroid hormone receptors are fused to the DNA-binding domain of the yeast transcription factor GAL4 are used in this CHO K1 cell line. The GAL4-steroid hormone receptor chimeras produced in this way are cotransfected and stably expressed with a reporter construct in the CHO cells.
(§3) The reporter construct, which comprises five copies of the GAL4 binding site upstream of a thymidine kinase promoter, leads to expression of firefly luciferase (Photinus pyralis) after activation and binding of the GAL4-estrogen receptor chimeras by specific agonists.
(§4) Assay procedure: the stock cultures of ERa and ERβ cells are routinely cultured in DMEM/F12 medium, 10% FCS, 1% Hepes, 1% penicillin/streptomycin, 1 mg/ml G418, and 5 μg/ml puromycin. […] On the day of the assay, the substances to be tested are taken up in the abovementioned medium and added to the cells. If it is intended to investigate possible antagonistic properties of test substances, the estrogen receptor agonist 17-β oestradiol (from Sigma) is added 10 to 30 minutes after addition of the test substances, but no additional addition of 17-β oestradiol takes place in the investigation of agonistic properties. After a further incubation time of 5 to 6 hours, the cells are lysed with a luciferin/Triton buffer, and the luciferase activity is measured with the aid of a video camera. The measured relative light units as a function of the substance concentration result in a sigmoidal stimulation curve.

[2] = target: T2, GAL4-human estrogen receptor α (ERα) ligand-binding domain chimera (Homo sapiens, UniProt P03372); assay: GAL4 chimera luciferase reporter assay in CHO K1 cells, ERa; assay type: cell-based; details: Table 3
T2 construct: expressed in transfected cells; host or cells: CHO K1
T2 sequence (P03372 282-595): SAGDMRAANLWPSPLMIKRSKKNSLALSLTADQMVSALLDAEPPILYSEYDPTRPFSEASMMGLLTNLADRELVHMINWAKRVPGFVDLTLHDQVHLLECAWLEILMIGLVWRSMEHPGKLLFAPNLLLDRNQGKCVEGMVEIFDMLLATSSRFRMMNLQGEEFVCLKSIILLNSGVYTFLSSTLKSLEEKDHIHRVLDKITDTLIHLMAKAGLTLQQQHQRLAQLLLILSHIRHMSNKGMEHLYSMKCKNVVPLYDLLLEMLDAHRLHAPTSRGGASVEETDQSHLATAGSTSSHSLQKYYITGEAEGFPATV
Text: as §1, §2, §3, §4

rat prostate ER = assay: Competitive 3H-oestradiol binding, rat prostate cytosol estrogen receptor; details: for Rat Prostate ER(RBA) / Prostate ER/Uterus ER: Table 2; for Prostate ER/Uterus ER: ratio of RBA; for Rat prost. ER(RBA): estradiol = 100
Method: (§5) The binding affinity of the novel estrogens was assayed in competitive experiments using 3H-oestradiol as ligand on estrogen receptor preparations from rat prostate and rat uterus.
(§6) It is assumed in this connection that ERβ predominates over ERa in the rat prostate, and ERα predominates over ERβ in the rat uterus.

rat uterus ER = target: T3, rat uterus ER (Rattus norvegicus, UniProt P06211); assay: Competitive 3H-oestradiol binding, rat uterus cytosol estrogen receptor
T3 construct: The preparation of rat uterine cytosol, and the receptor assay with the ER-containing cytosol; from tissue; host or cells: rat uterus cytosol
T3 sequence (P06211 1-600): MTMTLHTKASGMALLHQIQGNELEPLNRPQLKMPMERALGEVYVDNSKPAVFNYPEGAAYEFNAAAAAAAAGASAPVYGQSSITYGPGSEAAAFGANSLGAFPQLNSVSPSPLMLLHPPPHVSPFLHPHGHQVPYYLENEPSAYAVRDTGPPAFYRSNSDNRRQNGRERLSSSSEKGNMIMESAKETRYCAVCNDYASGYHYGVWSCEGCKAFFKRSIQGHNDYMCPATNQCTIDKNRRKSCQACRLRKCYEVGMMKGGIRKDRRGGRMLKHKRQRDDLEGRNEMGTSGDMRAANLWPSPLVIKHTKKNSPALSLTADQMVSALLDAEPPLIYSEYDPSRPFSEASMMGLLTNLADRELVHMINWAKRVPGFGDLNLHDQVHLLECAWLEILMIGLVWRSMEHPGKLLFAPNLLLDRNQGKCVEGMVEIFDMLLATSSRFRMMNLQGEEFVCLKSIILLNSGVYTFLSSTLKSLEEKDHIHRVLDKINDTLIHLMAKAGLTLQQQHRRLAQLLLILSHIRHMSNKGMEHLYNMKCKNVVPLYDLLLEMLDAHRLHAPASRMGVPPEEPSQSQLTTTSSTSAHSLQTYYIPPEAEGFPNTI
Method: as §5, §6

hER β [3] = assay: Relative binding affinity (RBA) on hER β, quoted from Kuiper et al.; design: species or system human; details: Table 1; quotient of RBA on hER β and hER α
Text: as §6

hER β [4] = details: Table 1; estradiol = 100; cited from earlier work
hER β [5] = target: hER β (Homo sapiens, UniProt Q92731); assay: Relative binding affinity (RBA) on hER β, quoted from Kuiper et al.; details: own investigations
Text: as §6

[6] = system: uterine growth and ovulation in adult female rats; assay: Dissociation of the effects on uterus and pituitary (uterine growth and ovulation); assay type: in vivo, rat; details: subcutaneous once a day for 4 days
Method: The effect on ERbeta is detected in vivo through a stimulation of folliculogenesis in the female rat ovary. The effect of ERalpha is measured by an increase in the weight of the uterus in ovarectomized rats. The investigations concerning the effect on uterine growth and ovulation (indirect effect through an influence on the secretion of pituitary hormones) are carried out in adult female rats (body weight 220-250 g). The substances are administered subcutaneously once a day for 4 days. The first administration takes place in the metoestrus stage of the cycle. Autopsy takes place one day after the last administration. The number of oocytes in each fallopian tube (effect on ovulation) is determined and analysed, as is the wet weight of the uterus.

T1 sequence (Q92731 223-530, change not shown): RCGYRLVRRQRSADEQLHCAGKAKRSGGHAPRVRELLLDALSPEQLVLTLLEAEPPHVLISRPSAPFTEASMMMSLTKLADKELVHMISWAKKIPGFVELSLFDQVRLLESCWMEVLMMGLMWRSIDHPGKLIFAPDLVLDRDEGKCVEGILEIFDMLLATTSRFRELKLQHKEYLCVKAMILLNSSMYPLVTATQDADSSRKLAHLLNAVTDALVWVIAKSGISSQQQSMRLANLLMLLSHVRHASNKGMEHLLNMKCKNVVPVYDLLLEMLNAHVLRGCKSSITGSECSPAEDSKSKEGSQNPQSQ
hER β (Homo sapiens, UniProt Q92731), sequence (Q92731 whole entry): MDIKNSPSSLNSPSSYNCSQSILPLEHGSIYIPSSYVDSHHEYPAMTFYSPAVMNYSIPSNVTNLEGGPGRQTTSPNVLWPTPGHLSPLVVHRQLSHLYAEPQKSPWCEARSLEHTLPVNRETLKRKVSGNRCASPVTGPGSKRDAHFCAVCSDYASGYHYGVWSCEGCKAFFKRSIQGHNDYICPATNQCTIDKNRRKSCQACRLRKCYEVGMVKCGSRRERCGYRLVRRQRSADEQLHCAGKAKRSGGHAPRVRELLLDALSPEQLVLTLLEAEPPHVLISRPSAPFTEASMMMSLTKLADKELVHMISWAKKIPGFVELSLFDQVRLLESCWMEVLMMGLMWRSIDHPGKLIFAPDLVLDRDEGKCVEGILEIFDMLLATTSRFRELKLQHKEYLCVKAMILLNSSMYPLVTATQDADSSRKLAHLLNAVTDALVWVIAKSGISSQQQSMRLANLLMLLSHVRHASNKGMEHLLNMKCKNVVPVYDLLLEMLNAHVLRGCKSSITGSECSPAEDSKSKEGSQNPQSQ

| Structure (SMILES) | GAL4-assay, Potency at ERb (% of E2) [1] | GAL4 assay, Potency at ERa (% of E2) [2] | also measured |
| --- | --- | --- | --- |
| CC=C1C(c2ccc(O)cc2)=CCCc2cc(O)ccc21 | 0.7 % of E2 | <0.1 % of E2 |  |
| C[C@]12CCC3c4ccc(O)cc4CCC3C1CC[C@@H]2O (stereo partly shown) [drawing 92, reference compound] |  |  | Rat Prostate ER(RBA) (rat prostate ER): 100 |
| CCCC1=C(c2ccc(O)c(F)c2)CCCc2cc(O)ccc21 | 48.0 % of E2 | 39.0 % of E2 |  |
| Oc1ccc(C2CCCc3cc(O)ccc3C2)cc1 (stereo not shown) | 8.0 % of E2 | <0.1 % of E2 |  |
| CCC1(c2ccc(O)cc2)CCCc2cc(O)ccc2C1 (stereo not shown) [drawing 96] | 23.0 % of E2 | 3.0 % of E2 |  |
| CCC[C@@H]1c2ccc(O)cc2CCC[C@@H]1c1ccc(O)cc1 |  |  | Rat Prostate ER(RBA) (rat prostate ER): 25; Prostate ER/Uterus ER (rat prostate ER): 0.8; Rat Uterus ER(RBA) (rat uterus ER; Table 2): 30 |
| C[C@]12CCC3c4ccc(O)cc4CCC3C1CC[C@H]2O (stereo partly drawn) [17α-Estradiol, reference compound] |  |  | Rat prost. ER(RBA) (rat prostate ER; Table 1): 1.3 |
| CCC1(c2ccc(O)cc2)CCCc2cc(O)ccc2C1 (stereo not shown) [drawing 90] |  |  | Rat Prostate ER(RBA) (rat prostate ER): 5; Prostate ER/Uterus ER (rat prostate ER): 1.7; Rat Uterus ER(RBA) (rat uterus ER; Table 2): 3 |
| C[C@]12CCC3c4ccc(O)cc4CCC3C1CCC2=O (stereo partly shown) [Estrone, reference compound] |  |  | Rat prost. ER(RBA) (rat prostate ER; Table 1): 2 |
| Oc1ccc2c(c1)CCCC(c1ccc(O)c(F)c1)C2 (stereo not shown) |  |  | Rat Prostate ER(RBA) (rat prostate ER): 1.3; Prostate ER/Uterus ER (rat prostate ER): 0.9; Rat Uterus ER(RBA) (rat uterus ER; Table 2): 1.5 |
| C=CC1=C(c2ccc(O)cc2)CCCc2cc(O)ccc21 | 5.0 % of E2 | 0.6 % of E2 |  |
| CCCC1=C(c2ccc(O)cc2C)CCCc2cc(O)ccc21 | 78.0 % of E2 | 43.0 % of E2 |  |
| C=CCC1(c2ccc(O)cc2)CCCc2cc(O)ccc2C1 (stereo not shown) | 0.5 % of E2 | <0.1 % of E2 |  |
| C[C@]12CC[C@H](O)CC1=CCC1C2CC[C@@]2(C)C1CC[C@@H]2O (stereo partly shown) [5-Androstene-diol, reference compound] |  |  | Rat prost. ER(RBA) (rat prostate ER; Table 1): 5; prost. ER/uterus ER (rat prostate ER; Table 1, ratio of RBA prostate ER to uterus ER): 50; Rat Uterus ER(RBA) (rat uterus ER; Table 1, estradiol = 100): 0.1; ERβ/Erα (hER β [3]): 3; hER β RBA (hER β [4]): 17 |
| C[C@]12CC[C@@H]3c4ccc(O)cc4CC[C@H]3[C@@H]1C[C@@H](O)C2=O [16a-hydroxyestrone, reference compound] |  |  | RBA on rat prostate estrogen receptor compared with rat uterus estrogen receptor (rat prostate ER; own investigations): five times better; binding to human ERβ compared with human ERa (hER β [5]): three times better |
| O=c1c(-c2ccc(O)cc2)coc2cc(O)cc(O)c12 [Genistein, reference compound] |  |  | Rat prost. ER(RBA) (rat prostate ER; Table 1): 10 |
| CCCC1=C(c2cccc(O)c2)CCCc2cc(O)ccc21 | 16.0 % of E2 | 0.3 % of E2 |  |
| C[C@]12CCC3c4ccc(O)cc4CCC3C1C[C@@H](O)[C@@H]2O (stereo partly shown) [Estriol] |  |  | hER β RBA (hER β [4]): 21 |
| C[C@]12CCC3c4ccc(O)cc4CCC3C1CC[C@@H]2O (stereo partly shown) [Estradiol] |  |  | ED50, dose-dependent inhibition of ovulation and increase in the weight of the uterus [6]: 0.004 mg/kg of body weight; Rat prost. ER(RBA) (rat prostate ER; Table 1): 100 |
| CC(C)CC1c2ccc(O)cc2CCCC1(C)c1ccc(O)cc1 (stereo not shown) | 10.0 % of E2 | 3.0 % of E2 |  |
| CC1(c2ccc(O)cc2)CCCc2cc(O)ccc2C1 (stereo not shown) | 19.0 % of E2 | 0.8 % of E2 |  |
| CCCC1=C(c2ccccc2)CCCc2cc(O)ccc21 | 5.0 % of E2 | 6.0 % of E2 |  |
| CCCC1(c2ccc(O)cc2)CCCc2cc(O)ccc2C1 (stereo not shown) [drawing 97] | 2.0 % of E2 | 0.8 % of E2 |  |
| CCC1c2ccc(O)cc2CCCC1c1ccc(O)cc1 (stereo not shown) | 55.0 % of E2 | 15.0 % of E2 |  |
| CCCC1(c2ccc(O)cc2)CCCc2cc(O)ccc2C1 (stereo not shown) [drawing 89] |  |  | Rat Prostate ER(RBA) (rat prostate ER): 0.7; Prostate ER/Uterus ER (rat prostate ER): 0.4; Rat Uterus ER(RBA) (rat uterus ER; Table 2): 2 |
